How the values were obtained:
Type in all cases: cell-based
Prüfmikroorganismen = assay: Inactivator test, overall statement for all four test organisms; conditions: concentration range 0,02 - 0,05 Gew.-% in o/w emulsion
Excerpt: (§1) Um die Wirksamkeit der antimikrobiellen Wirkstoffe in einem bestimmten Konzentrationsbereich in einer Öl in Wasser Emulsion zu testen wurde ein Inaktivatortest nach prEN13727 (2008) und prEN13624 (2010) gegenüber Enterococcus hirae (ATCC 10541), Escherichia coli (ATCC 11229), Pseudomonas aeruginosa (ATCC 15442) und Staphylococcus aureus (ATCC 6538) für n = 4 durchgeführt. Die Messergebnisse sind in Tabelle 8 wiedergegeben. Tabelle 8

[1] = test system: Enterococcus hirae (ATCC 10541); assay: Inactivator test per prEN13727 (2008) and prEN13624 (2010); conditions: n = 4
Excerpt: (§2) Es wurden Öl in Wasser Emulsionen hergestellt, die unterschiedliche Mengen X des antimikrobiellen Wirkstoffs Polyhexamethylenbiguanidiniumhydrochlorid (PHMB) [erfindungsgemäß] und Chlorhexidin (CHX) [Vergleich] aufweisen. Die Öl in Wasser Emulsionen sind in Tabelle 7 wiedergegeben. Tabelle 7
as §1

[2] = test system: Escherichia coli (ATCC 11229); assay: as above; conditions: n = 4
Excerpt: as §2, §1

[3] = test system: Pseudomonas aeruginosa (ATCC 15442); assay: as above; conditions: n = 4
Excerpt: as §2, §1

[4] = test system: Staphylococcus aureus (ATCC 6538); assay: as above; conditions: n = 4
Excerpt: as §2, §1

[5] = 0,02% active in o/w emulsion (Tabelle 7)
[6] = 0,03% active in o/w emulsion (Tabelle 7)
[7] = 0,04% active in o/w emulsion (Tabelle 7)
[8] = 0,05% active in o/w emulsion (Tabelle 7)

N=C(NCCCCCCNC(=N)NC(=N)Nc1ccc(Cl)cc1)NC(=N)Nc1ccc(Cl)cc1 [CHX, Chlorhexidin]
mikrobiozide Wirkung in der Öl in Wasser Emulsion (Prüfmikroorganismen): inaktiviert vollständig | Kolonien-bildende Einheiten E. hirae [1, 5]: 104 ± 4 | Kolonien-bildende Einheiten E. hirae [1, 6]: 102 ± 5 | Kolonien-bildende Einheiten E. hirae [1, 7]: 106 ± 3 | Kolonien-bildende Einheiten E. hirae [1, 8]: 106 ± 3 | Kolonien-bildende Einheiten E. coli [2, 5]: 132 ± 1 | Kolonien-bildende Einheiten E. coli [2, 6]: 131 ± 5 | Kolonien-bildende Einheiten E. coli [2, 7]: 130 ± 9 | Kolonien-bildende Einheiten E. coli [2, 8]: 130 ± 9 | Kolonien-bildende Einheiten P. aeruginosa [3, 5]: 316 ± 50 | Kolonien-bildende Einheiten P. aeruginosa [3, 6]: 315 ± 43 | Kolonien-bildende Einheiten P. aeruginosa [3, 7]: 355 ± 10 | Kolonien-bildende Einheiten P. aeruginosa [3, 8]: 339 ± 37 | Kolonien-bildende Einheiten S. aureus [4, 5]: 149 ± 5 | Kolonien-bildende Einheiten S. aureus [4, 6]: 156 ± 13 | Kolonien-bildende Einheiten S. aureus [4, 7]: 160 ± 8 | Kolonien-bildende Einheiten S. aureus [4, 8]: 159 ± 10

From patent publication EP2552195B1, “ANTIMICROBIAL OIL-IN-WATER EMULSION” (B. Braun Melsungen AG, priority 2010, dated 2011)
